Assay results taken from PubChem BioAssay AID1963432 (Molecular Pharmacology Branch, DTP, NCI, 2024).

Tested on: SYO-1 complex spheroid growth, percent test/control
Assay: Anticancer human tumor SYO-1 cell line growth inhibition [Asc];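 further: compound exposure lasted 7 days after spheroids grew 3 days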;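 on viability, T/C: 100% = DMSO vehicle control viability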
Settings: for IC50: curve of first compound; for viability, T/C: stronger effect = lower value
In short: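 Concentration series start at each agent's clinical Cmax, or at 10 microM when none is established, and drop in half-log steps; agents are applied alone or together to complex spheroids built with HUVEC and hMSC.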

[1] = second compound 0.00949 µM, first compound 0.0316 µM
[2] = second compound 0.00949 µM, first compound 0.1 µM
[3] = second compound 0.00949 µM, first compound 0.316 µM
[4] = second compound 0.00949 µM, first compound 1 µM
[5] = second compound 0.00949 µM, first compound 3.16 µM
[6] = second compound 0.00949 µM, first compound 10 µM
[7] = second compound 0.03 µM, first compound 0.0316 µM
[8] = second compound 0.03 µM, first compound 0.1 µM
[9] = second compound 0.03 µM, first compound 0.316 µM
[10] = second compound 0.03 µM, first compound 1 µM
[11] = second compound 0.03 µM, first compound 3.16 µM
[12] = second compound 0.03 µM, first compound 10 µM
[13] = second compound 0.0949 µM, first compound 0.0316 µM
[14] = second compound 0.0949 µM, first compound 0.1 µM
[15] = second compound 0.0949 µM, first compound 0.316 µM
[16] = second compound 0.0949 µM, first compound 1 µM
[17] = second compound 0.0949 µM, first compound 3.16 µM
[18] = second compound 0.0949 µM, first compound 10 µM
[19] = second compound 0.3 µM, first compound 0.0316 µM
[20] = second compound 0.3 µM, first compound 0.1 µM
[21] = second compound 0.3 µM, first compound 0.316 µM
[22] = second compound 0.3 µM, first compound 1 µM
[23] = second compound 0.3 µM, first compound 3.16 µM
[24] = second compound 0.3 µM, first compound 10 µM
[25] = second compound 0.949 µM, first compound 0.0316 µM
[26] = second compound 0.949 µM, first compound 0.1 µM
[27] = second compound 0.949 µM, first compound 0.316 µM
[28] = second compound 0.949 µM, first compound 1 µM
[29] = second compound 0.949 µM, first compound 3.16 µM
[30] = second compound 0.949 µM, first compound 10 µM
[31] = second compound 3 µM, first compound 0.0316 µM
[32] = second compound 3 µM, first compound 0.1 µM
[33] = second compound 3 µM, first compound 0.316 µM
[34] = second compound 3 µM, first compound 1 µM
[35] = second compound 3 µM, first compound 3.16 µM
[36] = second compound 3 µM, first compound 10 µM

C#Cc1c(F)ccc2cc(O)cc(-c3ncc4c(N5CC6CCC(C5)N6)nc(OCC56CCCN5CC(F)C6)nc4c3F)c12 (centres undefined) + CCN1C(C(=O)NC23CCC(C(=O)O)(CC2)CC3)C(c2cccc(Cl)c2F)C2(C(=O)Nc3cc(Cl)ccc32)C12CCCCC2
IC50 (second compound 0.00949 µM): > 10000 nM | IC50 (second compound 0.03 µM): > 10000 nM | IC50 (second compound 0.0949 µM): > 10000 nM | IC50 (second compound 0.3 µM): < 31.6 nM | IC50 (second compound 0.949 µM): < 31.6 nM | IC50 (second compound 3 µM): < 31.6 nM | viability, T/C [1]: 113% | viability, T/C [2]: 95.3% | viability, T/C [3]: 101% | viability, T/C [4]: 98.1% | viability, T/C [5]: 113% | viability, T/C [6]: 112% | viability, T/C [7]: 99% | viability, T/C [8]: 90.1% | viability, T/C [9]: 97.2% | viability, T/C [10]: 99.3% | viability, T/C [11]: 105% | viability, T/C [12]: 104% | viability, T/C [13]: 84.8% | viability, T/C [14]: 81.2% | viability, T/C [15]: 88.3% | viability, T/C [16]: 85.8% | viability, T/C [17]: 86.8% | viability, T/C [18]: 79.7% | viability, T/C [19]: 26.7% | viability, T/C [20]: 24.9% | viability, T/C [21]: 21.6% | viability, T/C [22]: 20.5% | viability, T/C [23]: 21.6% | viability, T/C [24]: 13.5% | viability, T/C [25]: 2.32% | viability, T/C [26]: 3.19% | viability, T/C [27]: 3.03% | viability, T/C [28]: 3.66% | viability, T/C [29]: 2.43% | viability, T/C [30]: 0.85% | viability, T/C [31]: 1.29% | viability, T/C [32]: 1.17% | viability, T/C [33]: 1.63% | viability, T/C [34]: 1.09% | viability, T/C [35]: 0.91% | viability, T/C [36]: 0.35%

C=C(F)C(=O)N1CCN(c2nc(OCC3CCCN3C)nc3c2CCN(c2cccc4cccc(Cl)c24)C3)CC1CC#N (centres undefined) + CCN1C(C(=O)NC23CCC(C(=O)O)(CC2)CC3)C(c2cccc(Cl)c2F)C2(C(=O)Nc3cc(Cl)ccc32)C12CCCCC2
IC50 (second compound 0.00949 µM): 5020 nM | IC50 (second compound 0.03 µM): 1860 nM | IC50 (second compound 0.0949 µM): 1620 nM | IC50 (second compound 0.3 µM): < 31.6 nM | IC50 (second compound 0.949 µM): < 31.6 nM | IC50 (second compound 3 µM): < 31.6 nM | viability, T/C [1]: 101% | viability, T/C [2]: 99.9% | viability, T/C [3]: 101% | viability, T/C [4]: 109% | viability, T/C [5]: 83.3% | viability, T/C [6]: 0.4% | viability, T/C [7]: 96.9% | viability, T/C [8]: 95.3% | viability, T/C [9]: 101% | viability, T/C [10]: 111% | viability, T/C [11]: 6.35% | viability, T/C [12]: 0.68% | viability, T/C [13]: 87.1% | viability, T/C [14]: 81% | viability, T/C [15]: 83.8% | viability, T/C [16]: 88.2% | viability, T/C [17]: 1.01% | viability, T/C [18]: 0.26% | viability, T/C [19]: 31.3% | viability, T/C [20]: 27.9% | viability, T/C [21]: 22.7% | viability, T/C [22]: 23.9% | viability, T/C [23]: 1.47% | viability, T/C [24]: 0.37% | viability, T/C [25]: 4.04% | viability, T/C [26]: 3.25% | viability, T/C [27]: 2.38% | viability, T/C [28]: 1.49% | viability, T/C [29]: 0.82% | viability, T/C [30]: 0.26% | viability, T/C [31]: 2.61% | viability, T/C [32]: 1.39% | viability, T/C [33]: 1.16% | viability, T/C [34]: 0.97% | viability, T/C [35]: 0.49% | viability, T/C [36]: 0.4%
